# Measurements reported in US20250066371A1, “FLUOROALKOXYALKYLENE-DIHYDROIMIDAZO[5,1-D]TETRAZINONE COMPOUNDS AND RELATED COMPOUNDS AND THEIR USE IN TREATING MEDICAL CONDITIONS” (priority 2023, published 2025).
# Counter-ions that a name gives are not always drawn. Like-named read-outs stand apart in the source and are kept apart here.
# What was measured:
# Format in all cases: cell-based
# [1] = system: LN229 gliobastoma cells MGMT+/MMR−; assay: Anti-cancer assay, isogenic LN229 cells, nuclei count (Example 43); details: Homo sapiens, read-out: MGMT+ MMR− Activity
# Text: (§1) Cytotoxicity of the compounds may be measured in short-term cell viability assays against four isogenic LN229 glioblastoma cell lines engineered to be proficient or deficient in MGMT and/or MMR activity by using short hairpin RNAs (shRNAs) targeting MSH2. This approach allows for determination of the relationship between MGMT status, MMR status, and compound activity. LN229 cells are maintained in Dulbecco's Modified Eagle Medium (DMEM) supplemented with 10% fetal bovine serum, 1% Penicillin/Streptomycin, and 0.1% Fungin. DAY 0: Cells are plated into sterile 96-well plates (Corning Costar 96-well) at a concentration of 500 cells/well using a Multichannel pipettor. Then, assay plates are incubated overnight in a 37° C. 5% CO2 incubator. DAY 1: Compounds are prepared as 50 mM stocks in dimethyl sulfoxide (DMSO) and stored protected from light at room temperature (RT) until use. Prior to compound addition, a two-fold serial dilution of compound stock solutions is performed in DMSO from 30 mM to 0.117 mM in a 96-well Master plate. Vehicle control wells contain DMSO. 97 μL of media is added to each well of a new 96-well plate (Daughter plate) and 3 μL of drug solution from Master plate is added to corresponding wells in the Daughter plate resulting in a 3× plate. Three replicate dilution curves of each compound are run on each assay plate. The final concentration of compounds ranges from 300 μM to 1.171 μM (9-point, 2-fold dilution dose response curve), and the final DMSO concentration is 1%.
# (§2) Assay plates are incubated for 120 hours at 37° C. in a humidified 5% CO2 incubator. DAY 5: Following incubation, cells are fixed with 4% paraformaldehyde and stained with Hoechst dye for nuclei visualization. Fixation, staining and washing is performed by using a Thermo Scientific Multidrop Combi. Images are acquired on a BioTek Cytation 5 Cell Imaging Multimode Reader and quantified using Cell Profiler image analysis software. Raw cell count data for test compounds are normalized to percent viability relative to the DMSO vehicle control.
# (§3) Isogenic LN229 gliobastoma cells were maintained in Dulbecco's Modified Eagle Medium (DMEM) supplemented with 10% fetal bovine serum, 1% Penicillin/Streptomycin, and 0.1% Fungin. DAY 0: Cells were plated into sterile 96-well plates (Corning Costar 96-well) at a concentration of 500 cells/well using a Multichannel pipettor. Then, assay plates were incubated overnight in a 37° C. 5% CO2 incubator. DAY 1: Compounds were prepared as 50 mM stocks in dimethyl sulfoxide (DMSO) and stored protected from light at room temperature (RT) until use. Prior to compound addition, a two-fold serial dilution of compound stock solutions was performed in DMSO from 30 mM to 0.117 mM in a 96-well Master plate. Vehicle control wells contained DMSO. 97 μL of media was added to each well of a new 96-well plate (Daughter plate) and 3 μL of drug solution from Master plate was added to corresponding wells in the Daughter plate resulting in a 3× plate. Three replicate dilution curves of each compound were run on each assay plate. The final concentration of compounds ranged from 300 μM to 1.171 μM (9-point, 2-fold dilution dose response curve), and the final DMSO concentration was 1%.
# as §2, with “plates were” for “plates are”, “cells were” for “cells are”, “washing was” for “washing is”, “Images were” for “Images are”, “compounds were” for “compounds are”
# [2] = system: LN229 gliobastoma cells MGMT+/MMR+; assay: as above; details: Homo sapiens, read-out: MGMT+ MMR+ Activity
# Text: as §1, §2, §3
# as §2, with “plates were” for “plates are”, “cells were” for “cells are”, “washing was” for “washing is”, “Images were” for “Images are”, “compounds were” for “compounds are”
# [3] = system: LN229 gliobastoma cells MGMT−/MMR−; assay: Anti-cancer assay, isogenic LN229 cells, nuclei count (Examples 43, 46); details: Homo sapiens, read-out: MGMT− MMR− Activity
# Text: as §1, §2, §3
# as §2, with “plates were” for “plates are”, “cells were” for “cells are”, “washing was” for “washing is”, “Images were” for “Images are”, “compounds were” for “compounds are”, “control. […]” for “control.”
# [4] = system: LN229 gliobastoma cells MGMT−/MMR+; assay: as above; details: Homo sapiens, read-out: MGMT− MMR+ Activity
# Text: as §1, §2, §3
# as §2, with “plates were” for “plates are”, “cells were” for “cells are”, “washing was” for “washing is”, “Images were” for “Images are”, “compounds were” for “compounds are”, “control. […]” for “control.”
# [5] = LN-229, LN229 MGMT+/MMR−, 120 hours
# [6] = LN-229, LN229 MGMT+/MMR+, 120 hours
# [7] = LN-229, LN229 MGMT−/MMR−, 120 hours
# [8] = LN-229, LN229 MGMT−/MMR+, 120 hours
Structure (SMILES),"IC50 [1, 5] [µM]","IC50 [2, 6] [µM]","IC50 [3, 7] [µM]","IC50 [4, 8] [µM]","IC50 ([1]; LN-229, 120 h) [µM]","IC50 ([2]; LN-229, 120 h) [µM]","IC50 ([3]; LN-229, 120 h) [µM]","IC50 ([4]; LN-229, 120 h) [µM]"
"O=NN(CCOC(F)(F)F)C(=O)NC1CCCCC1 [IV-1, 3-Cyclohexyl-1-nitroso-1-(2-(trifluoromethoxy)ethyl)urea]",–,–,–,–,20 to 50,20 to 50,20 to 50,20 to 50
"O=NN(CCOC(F)(F)F)C(=O)NCCOC(F)(F)F [IV-2, 1-Nitroso-1,3-bis(2-(trifluoromethoxy)ethyl)urea]",–,–,–,–,> 100,> 100,20 to 50,50 to 100
"CCNC(=O)c1ncn2c(=O)n(CCOC(F)(F)F)nnc12 [Compound I-3, N-Ethyl-4-oxo-3-(2-(trifluoromethoxy)ethyl)-3,4-dihydroimidazo[5,1-d][1,2,3,5]tetrazine-8-carboxamide]",–,–,–,–,> 100,> 100,50 to 100,50 to 100
"CN(C)C(=O)c1ncn2c(=O)n(CCOC(F)(F)F)nnc12 [Compound I-4, N,N-Dimethyl-4-oxo-3-(2-(trifluoromethoxy)ethyl)-3,4-dihydroimidazo[5,1-d][1,2,3,5]tetrazine-8-carboxamide]",20 to 50,50 to 100,20 to 50,20 to 50,–,–,–,–
"O=C(NC1CCCC1)c1ncn2c(=O)n(CCOC(F)(F)F)nnc12 [Compound I-5, N-Cyclopentyl-4-oxo-3-(2-(trifluoromethoxy)ethyl)-3,4-dihydroimidazo[5,1-d][1,2,3,5]tetrazine-8-carboxamide]",> 100,> 100,20 to 50,50 to 100,–,–,–,–
"O=C(Nc1ccccn1)c1ncn2c(=O)n(CCOC(F)(F)F)nnc12 [Compound I-8, 4-Oxo-N-(2-pyridyl)-3-[2-(trifluoromethoxy)ethyl]imidazo[5,1-d][1,2,3,5]tetrazine-8-carboxamide]",> 100,> 100,20 to 50,50 to 100,–,–,–,–
CNC(=O)c1ncn2c(=O)n(CCOC(F)(F)F)nnc12 [Compound I-26],> 100,> 100,< 20,20 to 50,–,–,–,–
"CN(C)CCN(C)C(=O)c1ncn2c(=O)n(CCOC(F)(F)F)nnc12 [Compound I-11, N-(2-(Dimethylamino)ethyl)-N-methyl-4-oxo-3-(2-(trifluoromethoxy)ethyl)-3,4-dihydroimidazo[5,1-d][1,2,3,5]tetrazine-8-carboxamide]",–,–,–,–,50 to 100,50 to 100,< 20,< 20
NC(=O)c1ncn2c(=O)n(CCCOCC(F)(F)F)nnc12 [Compound I-22],> 100,> 100,> 100,> 100,–,–,–,–
"O=c1n(CCOC(F)(F)F)nnc2c(-c3ccccc3)ncn12 [II-5, 8-Phenyl-3-(2-(trifluoromethoxy)ethyl)imidazo[5,1-d][1,2,3,5]tetrazin-4(3H)-one]",< 20,< 20,20 to 50,< 20,–,–,–,–

# Continued, in another order:
"IC50 [1, 5] [µM]","IC50 [2, 6] [µM]","IC50 [3, 7] [µM]","IC50 [4, 8] [µM]",Structure (SMILES),"IC50 ([1]; LN-229, 120 h) [µM]","IC50 ([2]; LN-229, 120 h) [µM]","IC50 ([3]; LN-229, 120 h) [µM]","IC50 ([4]; LN-229, 120 h) [µM]"
50 to 100,< 20,> 100,< 20,"O=c1n(CCOC(F)(F)F)nnc2c(-c3nc4ccccc4[nH]3)ncn12 [II-1, 8-(1H-Benzo[d]imidazol-2-yl)-3-(2-(trifluoromethoxy)ethyl)imidazo[5,1-d][1,2,3,5]tetrazin-4(3H)-one]",–,–,–,–
50 to 100,50 to 100,20 to 50,20 to 50,"CN1CCN(C(=O)c2ncn3c(=O)n(CCOC(F)(F)F)nnc23)CC1 [Compound I-10, 8-(4-Methylpiperazine-1-carbonyl)-3-(2-(trifluoromethoxy)ethyl)imidazo[5,1-d][1,2,3,5]tetrazin-4(3H)-one]",–,–,–,–
< 20,< 20,< 20,20 to 50,"Cc1cnc(-c2ncn3c(=O)n(CCOC(F)(F)F)nnc23)s1 [II-6, 8-(5-Methylthiazol-2-yl)-3-(2-(trifluoromethoxy)ethyl)imidazo[5,1-d][1,2,3,5]tetrazin-4(3H)-one]",–,–,–,–
< 20,20 to 50,20 to 50,< 20,"O=C(NC1CC1)c1ncn2c(=O)n(CCOC(F)(F)F)nnc12 [Compound I-6, N-Cyclopropyl-4-oxo-3-(2-(trifluoromethoxy)ethyl)-3,4-dihydroimidazo[5,1-d][1,2,3,5]tetrazine-8-carboxamide]",–,–,–,–
> 100,> 100,< 20,20 to 50,"NC(=S)c1ncn2c(=O)n(CCOC(F)(F)F)nnc12 [Compound I-31, 4-Oxo-3-(2-(trifluoromethoxy)ethyl)-3,4-dihydroimidazo[5,1-d][1,2,3,5]tetrazine-8-carbothioamide]",–,–,–,–
50 to 100,50 to 100,< 20,< 20,"N=C(N)c1ncn2c(=O)n(CCOC(F)(F)F)nnc12 [Compound I-34, 4-Oxo-3-(2-(trifluoromethoxy)ethyl)-3,4-dihydroimidazo[5,1-d][1,2,3,5]tetrazine-8-carboximidamide]",–,–,–,–
20 to 50,< 20,20 to 50,50 to 100,"O=c1n(CCOC(F)(F)F)nnc2c(-c3ncc(-c4ccccc4)o3)ncn12 [II-2, 8-(5-Phenyloxazol-2-yl)-3-(2-(trifluoromethoxy)ethyl)imidazo[5,1-d][1,2,3,5]tetrazin-4(3H)-one]",–,–,–,–
> 100,> 100,< 20,20 to 50,"[2H]C([2H])(OC(F)(F)F)C([2H])([2H])n1nnc2c(C(N)=O)ncn2c1=O [Compound I-29, 4-Oxo-3-(2-(trifluoromethoxy)ethyl-1,1,2,2-d4)-3,4-dihydroimidazo[5,1-d][1,2,3,5]tetrazine-8-carboxamide]",–,–,–,–
> 100,> 100,> 100,> 100,NC(=O)c1ncn2c(=O)n(COC(C(F)(F)F)C(F)(F)F)nnc12 [Compound I-23],–,–,–,–
< 20,< 20,< 20,20 to 50,"O=c1n(CCOC(F)(F)F)nnc2c(-c3nc4ccccc4o3)ncn12 [II-4, 8-(benzo[d]oxazol-2-yl)-3-(2-(trifluoromethoxy)ethyl) imidazo[5,1-d][1,2,3,5]tetrazin-4(3H)-one]",–,–,–,–
> 100,> 100,20 to 50,50 to 100,"NCCNC(=O)c1ncn2c(=O)n(CCOC(F)(F)F)nnc12 [Compound I-12, Hydrochloride Salt of N-(2-Aminoethyl)-4-oxo-3-(2-(trifluoromethoxy)ethyl)-3,4-dihydroimidazo[5,1-d][1,2,3,5]tetrazine-8-carboxamide]",–,–,–,–
